# Like-named read-outs stand apart in the source and are kept apart here.
# Key:
# [1] = test system: mice; settings: known stabilizer, in words; cited from earlier work
# [2] = known stabilizer, in words; cited from earlier work
# [3] = Static thermostability of stabilized polyvinyl chloride resin, GARDNER Scale comparator, 185° C.; settings: 185° C. and 210° C. trials, in words
# Description: The stabilizing power of the substances of the invention was studied by determining the static thermostability of the following resin: […]
# Polyvinyl chloride resin
# Calcium-12-hydroxy-stearate
# Stabilizer from 0.1 to 1
# SL 2016 represents a solution of zinc-2-ethyl-hexanoate in a mixture of aromatic hydrocarbons boiling between 158° and 184° C.
# The different ingredients were mixed and calendered in a mixer of which the cylinders were heated to 160° C.
# The rigid sheets so obtained were then heated in a oven to a temperature of 185° or 210° C., until incipient carbonization.
# A oven with a rotating drum, ventilated and equipped with a thermostat was used for this operation.
# In the trials described hereunder the behaviour of the sheets containing one of the stabilizers to be tested was compared to that of sheets of the same formula but containing 2-phenyl-indole as stabilizer.
# Comparison can be made by one of two methods, namely:
# (1) The coloration of the sheets, of which samples were removed from the oven at fixed intervals, was compared to a standard scale of coloration, known as the GARDNER Scale, and expressed in terms of the reference figures of the GARDNER Scale.
# Comparisons were made with a GARDNER Scale comparator which contains 18 filters of colored glass and which offers the possibility of observing simultaneously by transparency and in a limited field of view both the sheet and the reference filters.
# It may happen that the color of the sheets is far removed from that of the GARDNER Scale, in which case comparison is difficult, if not impossible.
# The following results were obtained at a temperature of 185° C., using the method described above: […]
# [4] = water; for Extractibility compared with 2-phenyl-indole: in words
# Description: This study was carried out in accordance with the requirements of the Food and Drug Administration (U.S.A.).
# The extractions were performed in semi-rigid bottles, prepared with the resin of which the composition is given below, and with the following solvents: water, ethanol-water 50/50, an aqueous solution of acetic acid (3%) and finally heptane.
# The ratio of the volume of solvent to the surface of plastic material exposed to extraction was about 1 to 100ml of solvent, taking into account the geometric characteristics of the bottles.
# Heating A thermostated oven for the non-inflammable
# solvents (water and acetic acid).
# A thermostated water-bath for the inflammable
# solvents (alcohol and heptane).
# The quantity of stabilizer extracted was determined by colorimetric assay using p-dimethylaminobenzaldehyde, in accordance with the method described in Analytical Chemistry 36,425-26 (1964).
# Results are expressed in μg of stabilizer extracted per litre of extraction solvent or, which is the same per 1000cm^2 of surface extracted.
# [5] = test system: mice; test: Acute toxicity (LD50 / LDO), oral route, mice; type: in vivo
# Description: (§1) The toxicity of the stabilizers of the invention was studied first and the satisfactory results obtained were such as to justify continuation of the investigation.
# (§2) The acute toxicity (LD50) of the stabilizers listed below was measured by determining the dose of substance which provoked the death of 50% of the animals treated.
# (§3) A gummy suspension of the substance under study was administered by oral route to groups of at least ten mice and the following results were observed: […]
# [6] = Acute toxicity (LD50 / LDO), oral route, mice; type: in vivo; settings: mouse, in vivo
# Description: as §1, §2, §3
structure (smiles),measurement,setting,value
c1ccc(-c2cc3ccccc3[nH]2)cc1 [2-phenyl-indole],Toxicity,[1],low toxicity
same,Stabilizing power,[2],good stabilizing power
"COc1ccc2cc(-c3ccccc3)[nH]c2c1 [Stabilizer 1, 2-phenyl-6-methoxy-indole]",Stabilizing power compared with 2-phenyl-indole,[3],superior to 2-phenyl-indole
"Oc1ccc2cc(-c3ccccc3)[nH]c2c1 [Stabilizer 2, 2-phenyl-6-hydroxy-indole]",Stabilizing power compared with 2-phenyl-indole,[3],superior to 2-phenyl-indole
same,"Extractibility, times less than 2-phenyl-indole",[4],at least 10 times
same,Extractibility compared with 2-phenyl-indole,[4],markedly superior to 2-phenyl-indole
"CCCCCCCCCCCCOc1ccc2[nH]c(-c3ccccc3)cc2c1 [Stabilizer 3, 2-phenyl-5-dodecyloxy-indole]",Stabilizing power compared with 2-phenyl-indole,[3],superior to 2-phenyl-indole
same,Extractibility compared with 2-phenyl-indole,[4]; aqueous ethanol and heptane,markedly less extractible than 2-phenyl-indole
same,Toxic symptoms,[5]; LD50 table,none
same,LD50,[6],> 5000 mg/kg
"COc1ccc(-c2cc3cc(C)ccc3[nH]2)cc1 [Stabilizer 4, 2-(4'-methoxy-phenyl)-5-methyl-indole]",Stabilizing power compared with 2-phenyl-indole,[3],superior to 2-phenyl-indole
same,LDO (maximal dose which does not provoke any death),[5],> 500 mg/kg
same,Toxic symptoms,[5]; LDO table,none
"COc1ccc(-c2cc3cccc(C)c3[nH]2)cc1 [Stabilizer 5, 2-(4'-methoxy-phenyl)-7-methyl-indole]",Stabilizing power compared with 2-phenyl-indole,[3],superior to 2-phenyl-indole
"COc1ccc(-c2cc3ccc(C)cc3[nH]2)cc1 [Stabilizer 6, 2-(4'-methoxy-phenyl)-6-methyl-indole]",Stabilizing power compared with 2-phenyl-indole,[3],superior to 2-phenyl-indole
same,Toxic symptoms,[5]; LD50 table,none
same,LD50,[6],> 3000 mg/kg
"COc1cc(-c2cc3cccc(C)c3[nH]2)ccc1O [Stabilizer 8, 2-(3'-methoxy-4'-hydroxy-phenyl)-7-methyl-indole]",Stabilizing power compared with 2-phenyl-indole,[3],superior to 2-phenyl-indole
"CCCCCCCCCCCCOc1ccc(-c2cc3ccc(C)cc3[nH]2)cc1 [Stabilizer 12, 2-(4'-dodecyloxy-phenyl)-6-methyl-indole]",Stabilizing power compared with 2-phenyl-indole,[3],superior to 2-phenyl-indole
same,Extractibility compared with 2-phenyl-indole,[4]; aqueous ethanol and heptane,markedly less extractible than 2-phenyl-indole
CCCCCCCCCCCCOc1ccc(-c2cc3ccc(C)cc3[nH]2)cc1 [Stabilizer 12],Toxic symptoms,[5]; LD50 table,none
same,LD50,[6],> 3000 mg/kg
"COc1cc(-c2cc3ccc(C)cc3[nH]2)ccc1O [Stabilizer 13, 2(3'-methoxy-4'-hydroxy-phenyl)6-methyl-indole]",Stabilizing power compared with 2-phenyl-indole,[3],superior to 2-phenyl-indole
"CCCCCCCCCCCCOc1ccc(-c2cc3cccc(C)c3[nH]2)cc1C [Stabilizer 14, 2-(3'-methyl-4'-dodecyloxy-phenyl)-7-methyl-indole]",Extractibility compared with 2-phenyl-indole,[4]; aqueous ethanol and heptane,markedly less extractible than 2-phenyl-indole
"COc1cc(-c2cc3cc(C)ccc3[nH]2)ccc1O [Stabilizer 15, 2(3'-methoxy-4'-hydroxy-phenyl)-5-methyl-indole]",Stabilizing power compared with 2-phenyl-indole,[3],superior to 2-phenyl-indole
"Oc1ccc2[nH]c(-c3ccccc3)cc2c1 [Stabilizer 19, 2-phenyl-5-hydroxy-indole]",Stabilizing power compared with 2-phenyl-indole,[3],superior to 2-phenyl-indole
Oc1ccc2[nH]c(-c3ccccc3)cc2c1 [Stabilizer 19],LDO (maximal dose which does not provoke any death),[5],> 500 mg/kg
same,Toxic symptoms,[5]; LDO table,none
